Test results published in patent publication US8476314B2, “Substance with sedative effect” (Technology Commercialization Corp, priority 2002, dated 2013).
Entries after “also recorded” stand apart in the source; their conditions may differ.

Tests used:
male rats of Wistar line = assay: "open field" test, motor activity of rats (sedative effect); assay type: in vivo, rat; settings: for Motor activity after the preparation's introduction (n): enteral, squares crossed within 5 minutes; for Lowering motor activity relative to the control (%): vs saline; for Lowering motor activity relative to the Valerian extract (%): vs same dose of Valerian extract
Method: The sedative effect was measured by the change in motor activity of male rats of Wistar line with the mass of 0.20-0.23 kg in “the open field” test [Guiding and Method Materials in Experimental and Clinical Study of New Drugs. Part 2. M., 1980, pp. 126-133].
Male rats were subjected to the enteral introduction of 0.5 ml of saline solution. Then, the animals were divided into two groups. The rats in the first group were tested in “the open field” 60 minutes after the solution's introduction. The rats in the second group were tested 90 minutes after the introduction. The test consisted of the rat being placed in the center of “the open field”, and then the number of squares of “the open field” that the rat crosses within 5 minutes is counted (an estimation of motor activity).
Valerian extract was steamed until it became dry. Then, the dry remains were dissolved in saline in the required dosage (see table 1 and rated in mg/kg of a rat's body weight). The solution obtained was introduced into rats in the same way as for control. The testing of rats in “the open field” was also carried out as described for control.
Comenic acid was dissolved in saline in the desired dosages (see table 1 below). The solution's pH was adjusted to equal 6.5-6.8 using concentrated NaOH solution. Comenic acid was introduced into the rats in the same way as in control. The testing of rats in “the open field” was carried out as described for control group as well.

Pliss limphosarcoma = assay: growth of transplanted Pliss limphosarcoma in rats; assay type: in vivo; settings: 50 mg/kg i.p., once per day, 5 times per week, 10 injections; tumor volumes day 6, 9, 13, 16 and mortality vs control; Anoceptin 1% solution
Method: Comenic acid (in medicinal form, referred to as “Anoceptin™”) was also tested on rats with transplanted tumors (Pliss limphosarcoma) to determine if it stimulated tumor growth (Effect of medicine Anoceptin on the growth of transplantable tumor in rats, State Oncology Institute, 2006, Saint-Petersburg, Russia). Pliss limphosarcoma was transplanted subcutaneously into 20 rats. Forty-eight hours after transplantation, the rats were randomly assigned into groups (10 rats in experimental group, and 10 in control group) and the injections were started. Both groups were injected i.p. (intraperitoneal) once per day, 5 times per week and given a total of 10 injections each. The experimental group was administered 50 mg/kg of comenic acid in each injection, while the control group was injected with 1.5 ml of physiological solution. Comenic acid was utilized in its medicinal form (“Anoceptin™”), a 1% solution with ions of proper moiety. For both groups, the size of the tumor was measured on day 6, 9, 13 and 16 of the experiment, and the volumes were calculated. […] The data was determined to be statistically significant, with p<0.05.

Ehrlich carcinoma = assay: growth of transplanted Ehrlich carcinoma in rats; assay type: in vivo; settings: 50 mg/kg i.p., once per day, 5 times per week, 10 injections; tumor volumes day 13-44 and mortality vs control; Anoceptin 1% solution
Method: Comenic acid (in medicinal form, referred to as “Anoceptin™”) was also tested on rats with transplanted tumors (Ehrlich carcinoma) to determine if it stimulated tumor growth (Effect of medicine Anoceptin on the growth of transplantable tumor, State Oncology Institute, 2006, Saint-Petersburg, Russia). Ehrlich carcinoma was transplanted subcutaneously into 20 rats. Forty-eight hours after transplantation, the rats were randomly assigned into groups (10 rats in experimental group, and 10 in control group) and the injections were started. Both groups were injected i.p. (intraperitoneal) once per day, 5 times per week and given a total of 10 injections each. The experimental group was administered 50 mg/kg of comenic acid in each injection, while each in the control group was injected with 0.125 ml of physiological solution. Comenic acid was utilized in its medicinal form (“Anoceptin™”), a 1% solution with ions of proper moiety. For both groups, the size of the tumor was measured on day 13, 16, 20, 23, 27, 30, 37 and 44 of the experiment, and the volumes were calculated. […] The data was determined to be statistically significant, with p<0.05.

[1] = tested on: tetrodotoxin-resistant (TTXr) Nav1.8 slow sodium channels; assay: patch-clamp experiments on dorsal root ganglion neurons; assay type: cell-based; settings: for modulation of the activity of TTXr Nav1.8 slow sodium channels: patch-clamp, extracellular solution Na+ 65 mM, Ca2+ 2 mM, Mg2+ 2 mM
[2] = tested on: opioid (or opioid-like) receptor; assay: patch-clamp experiments, receptor binding (naltrexone block, affinity order); assay type: cell-based; settings: patch-clamp results, decreasing affinity
From the text: The physiological effect on the Nav1.8 channel of the following closely related gamma-pyrone derivatives (see FIG. 1) was investigated: I) comenic acid (5-hydroxy-gamma-pyrone-2-carboxylic acid), II) meconic acid (3-hydroxy-gamma-pyrone-2,6-dicarboxylic acid, III) 5-methoxy-gamma-pyrone-2-carboxylic acid, IV) kojic acid (2-hydroxymethyl-5-hydroxy-gamma-pyrone) and V) chelidonic acid (gamma-pyrone-2,6-dicarboxylic acid). […] Clinical Pathophysiology (Russian), in press].
Thus, according to the model of the mechanism of ligand receptor binding of said opioid (or opioid like) receptor, the prerequisites for gamma-pyrones receptor activity are 1) a carboxy group in position 2 of the pyranone ring, 2) a carbonyl group in position 4 of the pyranone ring, and 3) a substituent in position 5 which can participate in Ca^2+ chelation. […] Clinical Pathophysiology (Russian), in press]. Based on these observations, several conclusions concerning the potential effect of substituents in positions 3, 5 and 6 on the stability of ligand-receptor complex can be drawn. The presence of a carboxy group in position 6 (meconic acid, II) increases ligand affinity to the receptor as compared with comenic acid (I). It may be proposed that the carboxy group in position 6 is involved in additional interaction with one or several polar functional groups of the receptor by formation of intermolecular hydrogen or salt bonds. Based on this, introduction of a hydrophobic substituent in position 6 should reduce the affinity of gamma-pyrone derivatives to said opioid (or opioid-like) receptor. […] An increase in the size of the alkoxy group in position 5 will also lead to a further decrease or even total loss of physiological activity of the gamma-pyrone molecule. Bulky substituents in positions 3, 5 and 6 will decrease the affinity of gamma-pyrones to said receptor, since they will less readily be accommodated in the binding pocket.

solubility = assay type: physicochemical
animals [3] = assay: continued daily administration to animals (sedative effect, dependency); assay type: in vivo
Method: (§1) One of the preferred compounds of the invention is comenic acid, also known as 5-hydroxy-4-oxo-4H-pyran-2-carbon acid, as well as 5-hydroxy-gamma-pyrone-2-carboxylic acid. […] The effect is long lasting, up to 24 hours after administration. […] The acid can be administered in a number of pharmaceutically acceptable ways by mixing it with known and biologically acceptable carriers. Administration methods include all parenteral modes, including injection (intravenously, subcutaneously, intramuscularly or intraperitoneal), transdermally, transmucosally, etc. […] This duration compares quite favorably to a typical drug abuse treatment cycle of 3 to 6 months using substitution methods such as methadone.
The effect from each administration lasts up to 24 hours.

animals [4] = assay: treatment of narcotic dependency / withdrawal syndrome in animals; assay type: in vivo; settings: pharmacologically effective dose
Method: as §1
It is intended that the selected gamma-pyrones as described in the proceeding section be administered as a substitute for the abused drug. Typically, this will involve administration of a therapeutically effective amount of a composition containing the compounds of the invention at least once every twenty-four hours. […] The preferred dosage range is from about 0.05 to about 0.5 mg per kilogram of body weight per day. Such daily dosage can be achieved in a single application, multiple applications or using a continuous release application.

[5] = experiments repeated with the same rats

O=C(O)c1cc(=O)c(O)co1 [Comenic acid, 5-hydroxy-gamma-pyrone-2-carboxylic acid]
Motor activity after the preparation's introduction (n) (male rats of Wistar line; 1 mg/kg of body weight, 60 min): 43.9 ± 6.8 n
Motor activity after the preparation's introduction (n) (male rats of Wistar line; 1 mg/kg of body weight, 90 min): 51.2 ± 8.3 n
Lowering motor activity relative to the control (%) (male rats of Wistar line; 1 mg/kg, 60 min): 13%
Lowering motor activity relative to the Valerian extract (%) (male rats of Wistar line; 1 mg/kg, 60 min): 19%
Lowering motor activity relative to the control (%) (male rats of Wistar line; 1 mg/kg, 90 min): −8%
Lowering motor activity relative to the Valerian extract (%) (male rats of Wistar line; 1 mg/kg, 90 min): −21%
Motor activity after the preparation's introduction (n) (male rats of Wistar line; 10 mg/kg of body weight, 60 min): 37.6 ± 5.9 n
Motor activity after the preparation's introduction (n) (male rats of Wistar line; 10 mg/kg of body weight, 90 min): 41.6 ± 6.8 n
Lowering motor activity relative to the control (%) (male rats of Wistar line; 10 mg/kg, 60 min): 25%
Lowering motor activity relative to the Valerian extract (%) (male rats of Wistar line; 10 mg/kg, 60 min): 22%
Lowering motor activity relative to the control (%) (male rats of Wistar line; 10 mg/kg, 90 min): 12.5%
Lowering motor activity relative to the Valerian extract (%) (male rats of Wistar line; 10 mg/kg, 90 min): −9%
Motor activity after the preparation's introduction (n) (male rats of Wistar line; 50 mg/kg of body weight, 60 min): 18.7 ± 3.3 n
Motor activity after the preparation's introduction (n) (male rats of Wistar line; 50 mg/kg of body weight, 90 min): 15.2 ± 3.1 n
Lowering motor activity relative to the control (%) (male rats of Wistar line; 50 mg/kg, 60 min): 63%
Lowering motor activity relative to the Valerian extract (%) (male rats of Wistar line; 50 mg/kg, 60 min): 52%
Lowering motor activity relative to the control (%) (male rats of Wistar line; 50 mg/kg, 90 min): 68%
Lowering motor activity relative to the Valerian extract (%) (male rats of Wistar line; 50 mg/kg, 90 min): 52%
Motor activity after the preparation's introduction (n) (male rats of Wistar line; 100 mg/kg of body weight, 60 min): 13.4 ± 4.8 n
Motor activity after the preparation's introduction (n) (male rats of Wistar line; 100 mg/kg of body weight, 90 min): 10.3 ± 2.8 n
Lowering motor activity relative to the control (%) (male rats of Wistar line; 100 mg/kg, 60 min): 73%
Lowering motor activity relative to the Valerian extract (%) (male rats of Wistar line; 100 mg/kg, 60 min): 67%
Lowering motor activity relative to the control (%) (male rats of Wistar line; 100 mg/kg, 90 min): 78%
Lowering motor activity relative to the Valerian extract (%) (male rats of Wistar line; 100 mg/kg, 90 min): 53%
development of tolerance (male rats of Wistar line; [5]): no development of tolerance
drug dependency (male rats of Wistar line; [5]): no indication of drug dependency
other side effects of the administration (male rats of Wistar line; [5]): no other side effects
sedative effect compared with that of valerian extract (male rats of Wistar line; rats, open field, 50 and 100 mg/kg): twice
effect on the growth of transplantable tumors of Pliss limphosarcoma (Pliss limphosarcoma): no effect (no stimulation and no inhibition)
effect on the growth of transplantable tumors of Ehrlich carcinoma (Ehrlich carcinoma): no effect (no stimulation and no inhibition)
modulation of the activity of TTXr Nav1.8 slow sodium channels ([1]; listed as I): modulated the activity; also recorded: shown to modulate the functioning
order of affinity of the test molecule to the receptor [2]: II>I>III
solubility in non-polar organic solvents (solubility): practically insoluble
solubility in water and alcohol (solubility): moderately water- and alcohol-soluble
drug dependency after continued daily use (animals [3]; 50 days of continued daily use): without causing drug dependency
duration of the effect after administration (animals [3]; each administration): up to 24 hours
treatment of narcotic dependency in animals (animals [4]): effective treatment for the cure of narcotic dependency

O=C(O)c1cc(=O)c(O)c(C(=O)O)o1 [II, 3-hydroxy-gamma-pyrone-2,6-dicarboxylic acid]
modulation of the activity of TTXr Nav1.8 slow sodium channels [1]: modulated the activity
order of affinity of the test molecule to the receptor [2]: II>I>III

O=C(O)c1cc(=O)cc(C(=O)O)o1 [V, gamma-pyrone-2,6-dicarboxylic acid, reference compound]
modulation of the activity of TTXr Nav1.8 slow sodium channels [1]: did not exhibit such effect; also recorded: did not influence the functioning

COc1coc(C(=O)O)cc1=O [III, 5-methoxy-gamma-pyrone-2-carboxylic acid]
effect on the Nav1.8 slow sodium channel compared with comenic acid (I) ([1]; patch clamp, dorsal root ganglion neurons): decrease in activity
modulation of the activity of TTXr Nav1.8 slow sodium channels [1]: modulated the activity; also recorded: shown to modulate the functioning
order of affinity of the test molecule to the receptor [2]: II>I>III
solubility in non-polar organic solvents (solubility): practically insoluble
solubility in water and alcohol (solubility): moderately water- and alcohol-soluble

O=c1cc(CO)occ1O [IV, 2-hydroxymethyl-5-hydroxy-gamma-pyrone, reference compound]
modulation of the activity of TTXr Nav1.8 slow sodium channels [1]: did not exhibit such effect; also recorded: did not influence the functioning
